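Compound exposure: 48 hours, 5 concentrations, 96-well plates. TGI denotes the concentration required for complete inhibition of growth.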
Assays:
Experiment in all cases: DTP human tumour cell line panel, 48 h
UO-31 renal = tested on: UO-31 renal
K-562 leukemia = tested on: K-562 leukemia
SNB-19 CNS = tested on: SNB-19 CNS
HOP-62 NSCLC = tested on: HOP-62 NSCLC
SN12C renal = tested on: SN12C renal
NCI-H23 lung = tested on: NCI-H23 lung
OVCAR-5 ovarian = tested on: OVCAR-5 ovarian
KM12 colon = tested on: KM12 colon
NCI-H226 lung = tested on: NCI-H226 lung
BT-549 breast = tested on: BT-549 breast
HOP-92 NSCLC = tested on: HOP-92 NSCLC
RXF 393 renal = tested on: RXF 393 renal
A498 renal = tested on: A498 renal
MDA-MB-231 breast = tested on: MDA-MB-231 breast
LOX IMVI melanoma = tested on: LOX IMVI melanoma
MOLT-4 leukemia = tested on: MOLT-4 leukemia
HT29 colon = tested on: HT29 colon
DU-145 prostate = tested on: DU-145 prostate
MDA-MB-435 = tested on: MDA-MB-435
M14 melanoma = tested on: M14 melanoma
ACHN renal = tested on: ACHN renal
CCRF-CEM leukemia = tested on: CCRF-CEM leukemia
HCT-15 colon = tested on: HCT-15 colon
PC-3 prostate = tested on: PC-3 prostate
SF-539 CNS = tested on: SF-539 CNS
SNB-75 CNS = tested on: SNB-75 CNS
SW-620 colon = tested on: SW-620 colon
SK-MEL-28 melanoma = tested on: SK-MEL-28 melanoma
IGROV1 ovarian = tested on: IGROV1 ovarian
NCI/ADR-RES ovarian = tested on: NCI/ADR-RES ovarian
SK-MEL-5 melanoma = tested on: SK-MEL-5 melanoma
HS 578T breast = tested on: HS 578T breast
SK-OV-3 ovarian = tested on: SK-OV-3 ovarian
NCI-H460 lung = tested on: NCI-H460 lung
SF-295 CNS = tested on: SF-295 CNS
OVCAR-4 ovarian = tested on: OVCAR-4 ovarian
SK-MEL-2 melanoma = tested on: SK-MEL-2 melanoma
HCT-116 colon = tested on: HCT-116 colon
SF-268 CNS = tested on: SF-268 CNS
EKVX NSCLC = tested on: EKVX NSCLC
MCF7 breast = tested on: MCF7 breast
CAKI-1 renal = tested on: CAKI-1 renal
MDA-N = tested on: MDA-N
OVCAR-8 ovarian = tested on: OVCAR-8 ovarian
T-47D breast = tested on: T-47D breast
UACC-62 melanoma = tested on: UACC-62 melanoma
COLO 205 colon = tested on: COLO 205 colon
UACC-257 melanoma = tested on: UACC-257 melanoma
OVCAR-3 ovarian = tested on: OVCAR-3 ovarian
A549 NSCLC = tested on: A549 NSCLC
786-0 renal = tested on: 786-0 renal
HCC-2998 colon = tested on: HCC-2998 colon
NCI-H522 lung = tested on: NCI-H522 lung
TK-10 renal = tested on: TK-10 renal
MALME-3M melanoma = tested on: MALME-3M melanoma
RPMI-8226 leukemia = tested on: RPMI-8226 leukemia
U251 CNS = tested on: U251 CNS
HL-60(TB) leukemia = tested on: HL-60(TB) leukemia

CCOC(=O)C(C(=O)OCC)C1C=CCC2c3ccccc3COCC21 (stereo not drawn)
TGI (UO-31 renal): > 100 µM
TGI (K-562 leukemia): > 100 µM
TGI (SNB-19 CNS): > 100 µM
TGI (HOP-62 NSCLC): > 100 µM
TGI (SN12C renal): > 100 µM
TGI (NCI-H23 lung): > 100 µM
TGI (OVCAR-5 ovarian): > 100 µM
TGI (KM12 colon): > 100 µM
TGI (NCI-H226 lung): > 100 µM
TGI (BT-549 breast): > 100 µM
TGI (HOP-92 NSCLC): > 100 µM
TGI (RXF 393 renal): > 100 µM
TGI (A498 renal): > 100 µM
TGI (MDA-MB-231 breast): > 100 µM
TGI (LOX IMVI melanoma): > 100 µM
TGI (MOLT-4 leukemia): > 100 µM
TGI (HT29 colon): > 100 µM
TGI (DU-145 prostate): > 100 µM
TGI (MDA-MB-435): > 100 µM
TGI (M14 melanoma): > 100 µM
TGI (ACHN renal): > 100 µM
TGI (CCRF-CEM leukemia): > 100 µM
TGI (HCT-15 colon): > 100 µM
TGI (PC-3 prostate): > 100 µM
TGI (SF-539 CNS): > 100 µM
TGI (SNB-75 CNS): > 100 µM
TGI (SW-620 colon): > 100 µM
TGI (SK-MEL-28 melanoma): > 100 µM
TGI (IGROV1 ovarian): > 100 µM
TGI (NCI/ADR-RES ovarian): 96.1 µM
TGI (SK-MEL-5 melanoma): 36 µM
TGI (HS 578T breast): > 100 µM
TGI (SK-OV-3 ovarian): > 100 µM
TGI (NCI-H460 lung): > 100 µM
TGI (SF-295 CNS): > 100 µM
TGI (OVCAR-4 ovarian): > 100 µM
TGI (SK-MEL-2 melanoma): > 100 µM
TGI (HCT-116 colon): > 100 µM
TGI (SF-268 CNS): > 100 µM
TGI (EKVX NSCLC): > 100 µM
TGI (MCF7 breast): > 100 µM
TGI (CAKI-1 renal): > 100 µM
TGI (MDA-N): > 100 µM
TGI (OVCAR-8 ovarian): > 100 µM
TGI (T-47D breast): > 100 µM
TGI (UACC-62 melanoma): > 100 µM
TGI (COLO 205 colon): 48.9 µM
TGI (UACC-257 melanoma): > 100 µM
TGI (OVCAR-3 ovarian): > 100 µM
TGI (A549 NSCLC): > 100 µM
TGI (786-0 renal): > 100 µM
TGI (HCC-2998 colon): > 100 µM
TGI (NCI-H522 lung): 71.2 µM
TGI (TK-10 renal): > 100 µM
TGI (MALME-3M melanoma): > 100 µM
TGI (RPMI-8226 leukemia): > 100 µM
TGI (U251 CNS): > 100 µM
TGI (HL-60(TB) leukemia): 56.8 µM

From PubChem BioAssay (NCI)
